In paper PMC8880061, “Synthesis of (+)-(R)-Tiruchanduramine” (Molecules, 2022):

Molecular target: almond β-glucosidase
Experiment: glycosidase inhibition assay with p-nitrophenyl substrate, commercial (Sigma) enzyme
Format: biochemical, Prunus dulcis

Q: For `NC1=NC[C@@H](CCNC(=O)c2cc3c(cn2)[nH]c2ccccc23)N1` [compound 1, (+)-(R)-Tiruchanduramine], which IC50 is on record?
A: The IC50 was 1 mM.
